From a melting point compilation (Tetko et al.; mined from patent text by program, amines drawn as free bases though some values may be those of a salt)

SMILES | melting point [°C]
COc1ccc(C(=O)OC2CCCC2)nc1Cl | 90 to 92
Cc1cc2c(c3ccc(=O)[nH]c13)OC(CSCCN)C2 (stereo not given) | 182 to 184
CN(C)CCN1C(=O)C(C)(C)SC1c1cccnc1 (stereo not given) | 67 to 70
Cc1cc(=O)c(C(=O)O)c(C)o1 | 98
COC1C(OC(N)=O)CCC2(CO2)C1C1(C)OC1CC=C(C)C (stereo not given) | 125 to 126
CCc1ccc2c(c1)C(O)Cc1ccc(F)cc1S2 (stereo not given) | 97
CC(=O)NCCc1nc(-c2csc(N=C(N)N)n2)cs1 | 226 to 227
Oc1nc2ccc3sccc3c2nc1O | 187
COc1cc(N2CCN(CCc3coc4ccc(F)cc34)CC2)c2ncccc2c1 | 80
CC(C)(C)c1nn(-c2cc(F)c(C#N)cc2F)c(=O)o1 | 137
N=c1n[n+]([O-])c2ccccc2n1OC(=O)c1ccccc1 | 177 to 179
Cc1nc2nc[nH]c2c(=O)[nH]1 | > 300
O=c1cnc2cc3[nH]c(-c4ccncc4)nc3cc2[nH]1 | > 320
O=C(O)c1cc([N+](=O)[O-])c(Cl)c(S(=O)(=O)Cl)c1 | 189 to 190
N#CC(CC1CCCCC1)c1n[nH]c2cc(O)ccc12 (stereo not given) | 175
CC(C)(C)OC(=O)N[C@H]1CC[C@H](CC=O)CC1 | 61 to 63
COC(=O)c1c(Br)c(Br)c(C(=O)OC)c(Br)c1Br | 207 to 210
C1=C(c2csc3ccccc23)CCN(Cc2ccccc2)C1 | 90
COc1ccc(/C=N/N2CCCCC2)cc1OC1CCCC1 | 81 to 82
O=C(Nc1ccncc1)C1=C(O)CCn2c1nc1ccccc12 | 274 to 276
CC1CCC(Nc2ccc(Br)cc2)c2ncc(C(=O)O)c(=O)n21 (single isomer, unassigned; (-)) | 210 to 211
c1ccc(-c2ncnc3sc4c(c23)CCCC4)cc1 | 135 to 137

SMILES | melting point [°C]
Cn1cc(-c2ncc(OC3SCC(O)C(O)C3O)cc2F)cn1 (stereo not given) | 206
CCC(COC)c1ccc(Cl)c2nc3n(c12)CCCN3c1ccc(Cl)cc1Cl (stereo not given) | 130 to 131
NC(=O)c1c(F)ccc(OCc2nc3ccc(Cl)cc3s2)c1F | 190 to 191
Cc1cc(O)c(O)cc1S(=O)(=O)c1ccc(F)cc1 | 175 to 177
CC(C)Sc1ccc(O)cc1O | 67
CCNc1cc(C(C)=NO)ccn1 | 155 to 156
CCOC(=O)c1c(C(F)F)nn(C)c1Cl | 37 to 39
CCOC(=O)c1[nH]c(C)c(CC(C)C)c1C | 115 to 117
N#C/C=C/C1CN(C(c2ccccc2)c2ccccc2)C1 | 108 to 110
CC(C)c1cc2c(cc1CSCC(=O)O)OCO2 | 83 to 84
CN(C)N=Nc1cc([N+](=O)[O-])sc1C(=O)O | 184 to 186
Cn1cnc(S(=O)(=O)N2CCS(=O)(=O)CC2)c1 | 179 to 180
COc1cc2oc(C(=O)O)cc2cc1Cl | 283
CCOC(=O)c1cn(CC)c2cc(N3CCNCC3)c(F)cc2c1=O | 178 to 180
CC(C)=NNC1=NCc2c[nH]c3cccc1c23 | 200 to 201
Nc1nc(-c2ccncc2)nc(N)c1N | 230 to 232
O=C1Nc2ccc3ccccc3c2CCC1(Cl)Cl | 187 to 191
OCCC1CC(n2nnc3c(NC4CC4c4ccccc4)nc(Sc4ccc(C(F)(F)F)cc4)nc32)C(O)C1O (stereo not given) | 100 to 102
O=C(C1=COCCOCCOCCOCCOCCO1)c1cccnc1 | 98 to 100
CN1C(=O)C(=O)c2cccnc21 | 162 to 163
N#CCc1ccc(OCCCN2CCN(C34CC5CC(CC(C5)C3)C4)CC2)cc1 | 136 to 138
O=S(=O)(CC(F)(F)F)Oc1cccc(OS(=O)(=O)CC(F)(F)F)c1OS(=O)(=O)CC(F)(F)F | 73.5 to 75

The next lines start with the values.

melting point [°C] | SMILES
119 to 122 | C=Cc1ccc(-c2ccc(OC(C)=O)cc2)cc1
100 to 102 | Cc1ccc(-c2ccc(CBr)cc2)cc1
111 to 114 | Fc1ccc(C2=CCC(N3CCN(Cc4ccc5ccccc5n4)CC3)CC2)cc1 (stereo not given)
109 | COc1ccc(Cl)cc1C(=O)NCc1ccc(-c2ccc(OC(C)(C)CO)cc2)cc1
260 to 264 | O=C(O)c1ccccc1-c1cc(-c2ccc(O)cc2)[nH]n1
110 | CCOC(=O)C(=O)CC(=O)C(=CN(C)C)c1ccccc1
33.5 to 35 | COC(=O)CCCCCCC1C(=O)Cc2cc(OC)ccc21 (stereo not given)
206 to 207 | CC(C)Cn1c(CNC(=O)OC(C)(C)C)c(-c2cccc(F)c2)c2cc(C(=O)O)ccc2c1=O
113 to 115 | CCCC(=O)c1cnc2c(O)cccc2c1Nc1ccccc1C
107 to 109 | CCCCC(Cc1ccc(OCCNC(=O)c2ccc(-c3cccc(OC)c3)cc2)cc1)C(=O)O (stereo not given)
134 to 136 | N#Cc1cc(-c2c3ccccc3cc3sc4ccccc4c23)cc(C#N)c1OCC(=O)O
213 to 215 | COc1cccc(CNC(=O)c2cc3c(=O)n(Cc4ccc([N+](=O)[O-])nc4)c(=O)n(C)c3s2)c1
207 to 210 | CN(Cc1cc2cc(Cl)ccc2o1)C1CCN(c2ccc(OC[C@@]3(C)Cn4cc([N+](=O)[O-])nc4O3)cc2)CC1
79 to 80 | CS(=O)(=O)NCCCNC(=O)c1cccc(-c2cccc3oc(Cc4cccc(C(F)(F)F)c4)cc23)c1
105 to 107 | O=C(O)c1ccccc1OCCN1CCC(c2cn(Cc3ccoc3)c3ncccc23)CC1
104 to 105 | COC(=O)[C@@H]1O[C@H](c2ccc(OC)cc2)N(C(=O)OC(C)(C)C)[C@H]1c1ccccc1
170 to 171 | O=C(O)c1ccc(OCCCCc2cc(-c3ccc(C(F)(F)F)cc3)no2)cc1
159 to 160 | CCC(=O)NCCc1ccc(OCc2ccccc2)c(OCc2ccccc2)c1CC
153 to 155 | Nc1cc(O)c(C(=O)NCC2CN(Cc3ccccc3)CCO2)cc1Cl (stereo not given)

melting point [°C] | SMILES
165 | COC(=O)c1scc(-c2ccccc2)c1-c1ccc(S(=O)(=O)COC(C)=O)c(F)c1
82 to 83 | CCOC(=O)Cc1nc(-c2ccccc2)oc1-c1cccs1
93 to 94 | Cc1ccc(C)c(OCCCC(C)(C)C(=O)Nc2cccc(N)c2)c1
226 to 228 | Cc1nc(-c2ccc(C(F)(F)F)cc2)sc1COc1ccc(/C=C/C(=O)O)cc1
184 to 185 | CC(C)(C)OC(=O)C(C1NC(C(=O)OCc2ccccc2)C2(CCN(c3ccccc3)CC2)S1)N1C(=O)c2ccccc2C1=O (stereo not given)
75 to 76 | Cc1cc2cc(Cl)ccc2n1Cc1ccccc1
74 to 75 | CCCCCCCCCOc1cc([N+](=O)[O-])ccc1N
90 to 93 | CN(C)C=Nc1ccc(-n2ncnc2-c2ccc(F)cc2)cc1
124 to 125 | CC1(C)CCC(C)(C)c2cc(N(CCCCO)C(=O)Nc3cccc(C(=O)O)c3)ccc21
107 to 109 | CSc1ccc(C2=CC(=O)C(C)(C)O2)cc1
83 | CCN(CC)C(=O)Oc1cc(-c2cccc(Cl)c2)nc2ccccc12
191 to 192 | CC(C)(C)OC(=O)COc1ccc(-c2c(Cl)c(CN3C(=O)CCC3=O)nc3sc4c(c23)CCSC4)cc1
> 225 | CNC(=O)COc1cccc2c1S(=O)(=O)N=C2C1=C(O)C(C(C)(C)C)N(Cc2ccc(F)cc2)C1=O (stereo not given)
202 to 204 | COc1cc(CC(C#N)=CNc2ccccc2)cc(OC)c1N(C)C(C)=O
229 to 230 | NC(=O)c1ccc(Oc2nccc(-c3c(-c4ccc(F)cc4)ncn3C3CCNCC3)n2)cc1
100 to 103 | CN(C)C(=O)c1cccnc1C(=O)c1cccc(C(F)(F)F)c1
105 to 106 | COc1cc(OCc2ccc3ccccc3c2)cc(C(=O)c2nccs2)c1
170 to 171 | CC(F)(F)c1cccc(C[C@@H](NC(=O)c2cccc3c2C=CCCC3)[C@@H](O)c2ccc(F)cc2)c1 (racemic)
215 to 219 | CC(C)(C)OCC(NC(=O)c1ccc2c(Cl)cnc(NC(=N)N)c2c1)C(=O)OC(C)(C)C (racemic)

melting point [°C] | SMILES
133 to 134 | Cc1oc(-c2ccccc2)nc1COc1ccc(COc2nn(C)cc2CC(=O)O)cc1
249 | COc1cc(OC)c(-c2nc(NC(=O)c3cc4ccccc4[nH]3)sc2C)cc1Cl
281 to 283 | CC(=O)NNc1nc(C(F)(F)F)nc(-c2ccc(S(C)(=O)=O)cc2)c1-c1ccccc1F
273 to 274 | Cc1cccc(NC(=O)c2cn(-c3ccccc3)c3ccccc3c2=O)n1
79 to 84 | CCOC(=O)[C@H](CCSCC)NC(=O)C(CSC(C)=O)Cc1ccccc1 (stereo not given in full)
210 to 211 | O=C(O)Cc1c(-c2ccccc2)n[nH]c1-c1ccccc1
160 to 161 | COc1ccc(Nc2ccc(C)cc2)c(C(=O)O)c1
148 | CN1CCC(c2ccc(Oc3ccccc3)cc2)(C(C)(C)O)CC1
40 to 41 | COc1ccc(C(=O)CCCCCBr)cc1
201 to 203 | Oc1cccc(C=Cc2nc(-c3ccccc3)c(-c3ccccc3)o2)c1
124 to 126 | CCOC(=O)c1c(C(C)C)nc2c(c1-c1ccc(F)cc1)CCCC2(C)C
123 to 125 | COc1ccc2c(c1)c(Cc1cc(=O)n(-c3ccc(Cl)c(Cl)c3)[nH]1)c(C)n2C(=O)c1ccc(Cl)cc1
148 to 149 | CCNc1ccc(C2(C)C(=O)c3c(Cl)cc(Cl)cc3N(Cc3ccccc3)C2=O)cc1 (stereo not given)
195 | COc1ccc2ccccc2c1C(Nc1ccccc1C)C(N)=O (stereo not given)
150 to 155 | CCCCCCOc1ccc(-c2ncc(-c3ccc(O)c(F)c3F)cn2)cn1
166 to 168 | Oc1cccc(CCc2nc(-c3ccccc3)c(-c3ccccc3)s2)c1
178 to 181 | CC(C)OC(=O)N1CCC(c2nc3ccc(-c4ccc(C(N)=O)c(F)c4)cc3o2)CC1
85 | O=C(NCCOc1ccccn1)C1Cc2ccccc2N1S(=O)(=O)c1ccc(-c2cccc(C(F)(F)F)c2)cc1 (stereo not given)
